Results reported in patent publication US6153591A, “Dipeptide caspase inhibitors and the use thereof” (Cytovia, Inc., priority 1999, dated 2000).
Square brackets hold non-standard residues; d marks the D form. Peptide text beside a SMILES is read from it. * marks the point of attachment. ξ: configuration not given here. 1Nal = N[C@@H](Cc1cccc2ccccc12)C(=O)O; ξPhg = NC(C(=O)O)c1ccccc1; Cbz = O=C(OCc1ccccc1)*; CH2F = FC*

Tests used:
caspase-3 (CPP32) = target: T1, caspase-3 (CPP32) (Homo sapiens, UniProt P42574); assay: Fluorometric enzyme assay of caspase-3 inhibition; type: biochemical; conditions: recombinant caspase-3, substrate Asp-Glu-Val-Asp-AMC 5 μM, 30° C., 30 minutes
T1 construct: made in house; host or cells: Sf9 insect cells, baculovirus vector
T1 sequence (P42574 29-175 limits assumed): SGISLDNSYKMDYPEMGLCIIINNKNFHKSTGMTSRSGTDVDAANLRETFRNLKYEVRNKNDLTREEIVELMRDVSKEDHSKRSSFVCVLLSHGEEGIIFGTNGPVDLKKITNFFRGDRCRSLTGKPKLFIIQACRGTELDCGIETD
T1 sequence (P42574 176-277 limits assumed): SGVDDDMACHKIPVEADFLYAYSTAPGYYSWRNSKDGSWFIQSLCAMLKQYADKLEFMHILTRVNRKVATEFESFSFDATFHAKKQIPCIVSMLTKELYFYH
Protocol: The activity of Cbz-Phg-Asp-fmk as an inhibitor of caspase-3 (CPP32) was measured in a fluorometric enzyme assay. Recombinant caspase-3 protein was prepared by expressing DNA clones encoding these enzymes in an insect host cell (sf9 cells) using baculovirus as the vector. See, Webb, N.R. et al., "Expression of proteins using recombinant Baculovirus," Techniques 2:173-188 (1990). Enzyme activity was measured using synthetic peptide substrates attached to a fluorogenic leaving group. Cleavage of the synthetic substrate by the enzyme results in a fluorescent signal which is read in a spectrofluorometer or in a fluorometric microtiter plate reader.
Caspase-3 activity was measured using the following buffer conditions: 100 mM HEPES pH 7.5, with 10% sucrose, 1% CHAPS. The peptide substrate for caspase-3 is Asp-Glu-Val-Asp-AMC (SEQ ID NO:2). […] The assay for enzyme activity was typically carried out at 30° C. for 30 minutes.

[1] = tested on: lethality in mice caused by an anti-Fas antibody (clone Jo2); assay: Protection against lethality in mice caused by anti-Fas antibody (clone Jo2); type: in vivo; conditions: Swiss Webster female mice, 6 μg Fas antibody
Protocol: Cbz-Phg-Asp-fmk was examined as a protectant against lethality in mice caused by an anti-Fas antibody (clone Jo2) (Rodriguez, I. et al J. Exp. Med 184:2067-2072 (1996). Swiss Webster female mice weighing between 16-20 g were used. Food and water were given ad libium. Purified hamster anti-mouse Fas monoclonal antibody (clone Jo2, commercially available) 1 mg/ml in phosphate buffered saline was dosed i.v. at 6 μg/mouse (80 μl).
Cbz-Phg-Asp-fmk was dissolved in 0.05M Tris base adjusted to pH 8.5 with HCl. The concentration of Cbz-Phg-Asp-fmk was 1-10 mg/ml dosed as a single bolus i.v. in a volume of 1-5 μl/g body weight. Five groups of mice were injected with 6 μg of Fas antibody per mouse. 5 minutes following the antibody injection the mice received either Tris vehicle control or 1, 2.5, 10 or 50 mg/kg of Cbz-Phg-Asp-fmk. The survival of the mice was followed throughout 24 hours.

Row | Compound | IC50 (caspase-3 (CPP32)) [nM] | also measured
1 | CN(C)CC(NC(=O)OCc1ccccc1)C(=O)NC(CC(=O)O)C(=O)CF (stereo not shown) [Z-(3-Me2 N--Ala]--Asp--fmk, Z-(3-Me2 N-Ala)-Asp-fmk] | 9600 | –
2 | O=C(O)CC(NC(=O)C(CCl)NC(=O)OCc1ccccc1)C(=O)CF (stereo not shown) [Z-[(L)-3-Cl--Ala]--Asp--fmk, Z-[(L)-3-Cl-Ala]-Asp-fmk] | 1000 | –
3 | O=C(O)CC(NC(=O)C(NC(=O)OCc1ccccc1)c1ccc(Cl)cc1)C(=O)CF (stereo not shown) [Z-(4-Cl--Phg)--Asp--fmk, Z-(4-Cl-Phg)-Asp-fmk] | 270 | –
4 | O=C(O)CC(NC(=O)C(NC(=O)OCc1ccccc1)c1ccc(C(F)(F)F)cc1)C(=O)CF (stereo not shown) [Z-(4-CF3 --Phg)--Asp--fmk, Z-(4-CF3 -Phg)-Asp-fmk] | 1200 | –
5 | CC(C(NC(=O)OCc1ccccc1)C(=O)NC(CC(=O)O)C(=O)CF)C(F)(F)F (stereo not shown) [Z--(F3 --Val)--Asp--fmk, Z-(F3 -Val)-Asp-fmk] | 600 | –
6 | CC(C)(F)[C@H](NC(=O)OCc1ccccc1)C(=O)N[C@@H](CC(=O)O)C(=O)CF [Z-(3-F-Val)--Asp--fmk, Z-(3-F-Val)-Asp-fmk] | 440 | –
7 | O=C(O)C[C@H](NC(=O)CC(NC(=O)OCc1ccccc1)c1ccccc1)C(=O)CF (stereo partly drawn) [Z-(3-Ph-- --Ala)--Asp--fmk, Z-(3-Ph-β-Ala)-Asp-fmk] | 4700 | –
8 | O=C(O)CC(NC(=O)C(NC(=O)OCc1ccccc1)c1ccsc1)C(=O)CF (stereo not shown) [Z-(3-Thg)--Asp--fmk, Z-(3-Thg)-Asp-fmk] | 340 | –
9 | CC(C)C(CNC(=O)OCc1ccccc1)C(=O)N[C@@H](CC(=O)O)C(=O)CF (stereo partly drawn) [Z-(2-i-Pr-- --Ala)--Asp--fmk, Z-(2-i-Pr-β-Ala)-Asp-fmk] | 1400 | –
10 | O=C(O)CC(NC(=O)C(NC(=O)OCc1ccccc1)c1ccc(F)cc1)C(=O)CF (stereo not shown) [Z-(4-F-Phg)--Asp--fmk, Z-(4-F-Phg)-Asp-fmk] | 1200 | –
11 | O=C(O)C[C@H](NC(=O)[C@H](Cc1cccc2ccccc12)NC(=O)OCc1ccccc1)C(=O)CF [Z-[(L)-1-Nal]--Asp--fmk, Z-[(L)-1-Nal]-Asp-fmk] (Cbz-[1Nal]-Asp-CH2F) | 1000 | –
12 | O=C(O)C[C@H](NC(=O)C(NC(=O)OCc1ccccc1)c1ccccc1)C(=O)CF (stereo partly drawn) [Cbz-Phg-Asp-fmk] (Cbz-[ξPhg]-Asp-CH2F) | – | Percent survival ([1]; 1 mg/kg i.v., 1 h): 100%; Percent survival ([1]; 1 mg/kg i.v., 3 h): 14.3%; Percent survival ([1]; 1 mg/kg i.v., 24 h): 0%; Percent survival ([1]; 2.5 mg/kg i.v., 1 h): 100%; Percent survival ([1]; 2.5 mg/kg i.v., 3 h): 28.6%; Percent survival ([1]; 2.5 mg/kg i.v., 24 h): 0%; Percent survival ([1]; 10 mg/kg i.v., 1 h): 100%; Percent survival ([1]; 10 mg/kg i.v., 3 h): 42.9%; Percent survival ([1]; 10 mg/kg i.v., 24 h): 14.3%; Percent survival ([1]; 50 mg/kg i.v., 1 h): 100%; Percent survival ([1]; 50 mg/kg i.v., 3 h): 100%; Percent survival ([1]; 50 mg/kg i.v., 24 h): 42.9%
13 | O=C(O)CC(NC(=O)C(NC(=O)OCc1ccccc1)c1ccco1)C(=O)CF (stereo not shown) [Z-(2-Fug)--Asp--fmk, Z-(2-Fug)-Asp-fmk] | 440 | –
14 | O=C(O)CC(NC(=O)C(NC(=O)OCc1ccccc1)c1ccsc1)C(=O)CF (stereo not shown) [Z-[(L)-3-Thg]--Asp--fmk] [Z-[(L)-3-Thg]-Asp-fmk] | 260 | –
15 | O=C(O)CC(NC(=O)C(CF)NC(=O)OCc1ccccc1)C(=O)CF (stereo not shown) [Z-(3-F-Ala)--Asp--fmk, Z-(3-F-Ala)-Asp-fmk] | 900 | –
16 | O=C(O)CC(NC(=O)C(NC(=O)OCc1ccccc1)c1ccccc1F)C(=O)CF (stereo not shown) [Z-(2-F--Phg)--Asp--fmk, Z-(2-F-Phg)-Asp-fmk] | 360 | –
17 | O=C(O)C[C@H](NC(=O)C(NC(=O)OCc1ccccc1)c1cccs1)C(=O)CF (stereo partly shown) [Z-(2-Thg)--Asp--fmk, Z-(2-Thg)-Asp-fmk] | 280 | –
18 | Z-[3-F-3-Me-Ala]-Asp-fmk [Z-(3-F-3-Me--Ala)--Asp--fmk] | 480 | –
19 | O=C(O)CC(NC(=O)C(NC(=O)OCc1ccccc1)c1cccs1)C(=O)CF (stereo not shown) [Z-[(L)-2-Thg]--Asp--fmk, Z-[(L)-2-Thg]-Asp-fmk] | 510 | –
20 | N#CCC(NC(=O)OCc1ccccc1)C(=O)NC(CC(=O)O)C(=O)CF (stereo not shown) [Z-[(L)-3-CN--Ala]--Asp--fmk, Z-[(L)-3-CN-Ala]-Asp-fmk] | 530 | –
